Results reported in PubChem BioAssay AID256 (DTP/NCI, 2004).
Where “and” joins values, the source holds several entries; their conditions need not be identical. Equal entries are not always repeated. Toxic doses and inconclusive results are not listed. The calls were made as follows: active = survival T/C of 150% or more; inactive = T/C below 125% in these data.

Tested on: CD2F1 mice, L1210 leukemia ip, survival T/C
Assay: NCI In Vivo Anticancer Drug Screen. Data for tumor model L1210 Leukemia (intraperitoneal) in CD2F1 (CDF1) mice
Conditions: endpoint: mean survival time, higher = longer survival
Outline: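 In this screen, transplantable tumors were grown in mice given either the compound or its vehicle. Results were expressed as the treated measurement relative to the control measurement.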

[1] = dose: 25.0 mg/kg/injection, schedule: Q04DX003 (ip), vehicle: saline
[2] = dose: 50.0 mg/kg/injection, schedule: Q01DX009 (ip), vehicle: saline sonified
[3] = dose: 50.0 mg/kg/injection, schedule: Q04DX003 (ip), vehicle: saline
[4] = dose: 100.0 mg/kg/injection, schedule: Q01DX009 (ip), vehicle: saline with Tween-80
[5] = dose: 200.0 mg/kg/injection, schedule: Q01DX009 (ip), vehicle: saline with Tween-80
[6] = dose: 400.0 mg/kg/injection, schedule: Q01DX009 (ip), vehicle: saline with Tween-80
[7] = dose: 75.0 mg/kg/injection, schedule: Q01DX001 (ip), vehicle: saline
[8] = dose: 100.0 mg/kg/injection, schedule: Q04DX003 (ip), vehicle: saline with Tween-80
[9] = dose: 200.0 mg/kg/injection, schedule: Q04DX003 (ip), vehicle: saline with Tween-80
[10] = dose: 400.0 mg/kg/injection, schedule: Q04DX003 (ip), vehicle: saline with Tween-80
[11] = dose: 100.0 mg/kg/injection, schedule: Q04DX002 (ip), vehicle: saline with Tween-80
[12] = dose: 200.0 mg/kg/injection, schedule: Q04DX002 (ip), vehicle: saline with Tween-80
[13] = dose: 400.0 mg/kg/injection, schedule: Q04DX002 (ip), vehicle: saline with Tween-80
[14] = dose: 100.0 mg/kg/injection, schedule: Q01DX001 (ip), vehicle: saline with Tween-80
[15] = dose: 200.0 mg/kg/injection, schedule: Q01DX001 (ip), vehicle: saline with Tween-80
[16] = dose: 400.0 mg/kg/injection, schedule: Q01DX001 (ip), vehicle: saline with Tween-80
[17] = dose: 25.0 mg/kg/injection, schedule: Q04DX003 (ip), vehicle: saline with Tween-80
[18] = dose: 50.0 mg/kg/injection, schedule: Q04DX003 (ip), vehicle: saline with Tween-80

Measured: T/C

CCCCCC(C)N (configuration not stated)
inactive: dose: 12.5 mg/kg/injection, schedule: Q01DX009 (ip), vehicle: saline sonified 101 % of control | dose: 12.5 mg/kg/injection, schedule: Q04DX003 (ip), vehicle: saline 104 % of control | dose: 25.0 mg/kg/injection, schedule: Q01DX009 (ip), vehicle: saline sonified 98 % of control | [1] 103 % of control | [2] 107 % of control | [3] 97 % of control

OCCOc1cccc(OCCO)c1
inactive: [4] 96 % of control | [5] 96 % of control | [6] 115 % of control

CCC/C=C(\C#N)C(=O)OC
inactive: [7] 97 % of control

NC(N)=NCC(=O)O
inactive: [8] 94 % of control | [9] 102 % of control | [10] 98 % of control

O=C(c1ccccc1)N(C(=O)c1ccccc1)c1cccc[n+]1[O-]
inactive: [8] 100 % of control | [9] 97 % of control | [10] 102 % of control

C[Si](C)c1cccc(Cl)c1
inactive: [4] 104 % of control | [5] 100 % of control

O=C1OCc2ccccc21
inactive: [11] 96 % of control | [12] 100 % of control | [13] 100 % of control

Nc1nc(N)nc(Cc2ccccc2)n1
inactive: [14] 104 % of control | [15] 103 % of control | [16] 95 % of control

CC(C)CC(C)(C)COP(=S)(OCC(C)(C)CC(C)C)OCC(C)(C)CC(C)C
inactive: [11] 91 % of control | [12] 91 % of control | [13] 102 % of control

COc1ccc2c(c1O)-c1c(OC)c(OC)cc3c1C(C2)N(C)CC3 (configuration not stated)
inactive: [14] 97 % of control | [15] 97 % of control | [16] 108 % of control

CC1(C)C2CC=C(CCN=[N+]=[N-])C1C2 (configuration not stated)
inactive: [2] 97 % of control | dose: 100.0 mg/kg/injection, schedule: Q01DX009 (ip), vehicle: saline sonified 97 % of control | [8] 105 % of control | dose: 200.0 mg/kg/injection, schedule: Q01DX009 (ip), vehicle: saline sonified 95 % of control | [9] 97 % of control

Cc1ccc(N=Cc2cc(Cl)ccc2O)cc1.Cc1ccc(N=Cc2cc(Cl)ccc2O)cc1.[Co]
inactive: [1] 95 % of control and 104 % of control | [3] 98 % of control and 108 % of control | dose: 100.0 mg/kg/injection, schedule: Q04DX003 (ip), vehicle: saline 124 % of control and 89 % of control

COc1ccc(OC)c(CCN)c1
inactive: dose: 12.5 mg/kg/injection, schedule: Q01DX009 (ip), vehicle: saline with Tween-80 101 % of control | dose: 25.0 mg/kg/injection, schedule: Q01DX009 (ip), vehicle: saline with Tween-80 102 % of control | [17] 100 % of control | dose: 50.0 mg/kg/injection, schedule: Q01DX009 (ip), vehicle: saline with Tween-80 93 % of control | [18] 97 % of control | [8] 108 % of control

O=C(/C=C/c1ccccn1)c1ccccc1
inactive: dose: 100.0 mg/kg/injection, schedule: Q04DX002 (ip), vehicle: Klucel (hydroxypropylcellulose) (HPC) 97 % of control | dose: 200.0 mg/kg/injection, schedule: Q04DX002 (ip), vehicle: Klucel (hydroxypropylcellulose) (HPC) 104 % of control

CCC(C)OP(=S)(S)OC(C)CC.[Zn+2] (configuration not stated)
inactive: dose: 0.75 mg/kg/injection, schedule: Q01DX009 (ip), vehicle: saline with Tween-80 88 % of control and 90 % of control | dose: 1.5 mg/kg/injection, schedule: Q01DX009 (ip), vehicle: saline with Tween-80 103 % of control | dose: 3.0 mg/kg/injection, schedule: Q01DX009 (ip), vehicle: saline with Tween-80 88 % of control and 92 % of control | dose: 3.13 mg/kg/injection, schedule: Q01DX009 (ip), vehicle: saline with Tween-80 86 % of control and 88 % of control | dose: 6.25 mg/kg/injection, schedule: Q04DX003 (ip), vehicle: saline with Tween-80 93 % of control | dose: 12.5 mg/kg/injection, schedule: Q01DX001 (ip), vehicle: saline with Tween-80 101 % of control | dose: 12.5 mg/kg/injection, schedule: Q04DX003 (ip), vehicle: saline with Tween-80 95 % of control | dose: 25.0 mg/kg/injection, schedule: Q01DX001 (ip), vehicle: saline with Tween-80 100 % of control | dose: 25.0 mg/kg/injection, schedule: Q04DX002 (ip), vehicle: saline with Tween-80 94 % of control and 100 % of control | [17] 97 % of control | dose: 50.0 mg/kg/injection, schedule: Q04DX002 (ip), vehicle: saline with Tween-80 120 % of control and 94 % of control

C/C(=N\O)C(C)(O)C(C)(C)C (configuration not stated)
inactive: [8] 90 % of control | [9] 98 % of control | [10] 93 % of control

C=CCNc1ncnc2c1ncn2C1OC(CO)C(O)C1O (configuration not stated)
inactive: dose: 75.0 mg/kg/injection, schedule: Q01DX001 (ip), vehicle: other 112 % of control | dose: 150.0 mg/kg/injection, schedule: Q01DX001 (ip), vehicle: other 103 % of control

COc1cccc(OC)c1C1=CCCCCC1
inactive: [14] 96 % of control | [4] 101 % of control | [15] 98 % of control | [5] 97 % of control | [16] 93 % of control | [6] 104 % of control

O=C1C(Cl)=C(NCc2ccc(Cl)cc2)C(=O)c2ccccc21
inactive: [17] 102 % of control | [18] 91 % of control | [8] 91 % of control

CC(CCOc1ccc(Cl)cc1Cl)C(=O)O (configuration not stated)
inactive: [11] 104 % of control | [12] 86 % of control

N=C1N(c2ccc(C(=O)NC(CCC(=O)O)C(=O)O)cc2)CC2CNc3nc(N)[nH]c(=O)c3N12 (configuration not stated)
inactive: dose: 100.0 mg/kg/injection, schedule: Q01DX001 (ip), vehicle: saline 100 % of control | dose: 200.0 mg/kg/injection, schedule: Q01DX001 (ip), vehicle: saline 93 % of control | dose: 400.0 mg/kg/injection, schedule: Q01DX001 (ip), vehicle: saline 104 % of control

CC1(C)C=CC(C)(C)c2c(NS(=O)(=O)c3ccccc3)ccc(NS(=O)(=O)c3ccccc3)c21
inactive: [8] 98 % of control | [10] 96 % of control

CC(=O)OCC1OC(Oc2c(Br)cc(Br)cc2Br)C(OC(C)=O)C(OC(C)=O)C1OC(C)=O (configuration not stated)
inactive: [4] 96 % of control | [5] 94 % of control | [6] 96 % of control

CC(=O)OCC1OC([S-])C(OC(C)=O)C(OC(C)=O)C1OC(C)=O.CC[PH+](CC)CC.CC[PH+](CC)CC.[Au].[Au] (configuration not stated)
inactive: dose: 0.62 mg/kg/injection, schedule: Q01DX009 (ip), vehicle: Klucel (hydroxypropylcellulose) (HPC) 100 % of control and 102 % of control | dose: 1.25 mg/kg/injection, schedule: Q01DX009 (ip), vehicle: Klucel (hydroxypropylcellulose) (HPC) 100 % of control and 104 % of control | dose: 2.5 mg/kg/injection, schedule: Q01DX009 (ip), vehicle: Klucel (hydroxypropylcellulose) (HPC) 96 % of control and 102 % of control | dose: 5.0 mg/kg/injection, schedule: Q01DX009 (ip), vehicle: Klucel (hydroxypropylcellulose) (HPC) 97 % of control and 98 % of control | dose: 10.0 mg/kg/injection, schedule: Q01DX009 (ip), vehicle: Klucel (hydroxypropylcellulose) (HPC) 94 % of control and 97 % of control

O=C(COc1ccccc1[N+](=O)[O-])CN1C(=O)c2ccccc2C1=O
inactive: [11] 91 % of control | [12] 91 % of control | [13] 91 % of control

NCCCNc1ccc([N+](=O)[O-])cc1
inactive: [7] 98 % of control | dose: 150.0 mg/kg/injection, schedule: Q01DX001 (ip), vehicle: saline 106 % of control | dose: 300.0 mg/kg/injection, schedule: Q01DX001 (ip), vehicle: saline 98 % of control
